Reference: patent publication US20100004277A1, “COMPOUNDS AND METHODS FOR MODULATING PROTEIN TRAFFICKING” (FoldRx Pharmaceuticals, Inc., priority 2006, published 2010)

Legend:
[1] = system: sec23-2^ts mutant yeast strain; experiment: sec23^ts mutant growth rescue assay (OD600); format: cell-based; details: 30° C., 24 hours, 0.05 to 50 μM
Procedure: The sec23-2^ts mutant yeast strain carries a temperature sensitive mutant allele of the SEC23 gene, which permits the strain to grow normally at 25° C., but undergo growth arrest at 30° C. or higher. Inactivation of the Sec23 temperature-sensitive mutant protein at the restrictive temperature prevents the formation of transport vesicles at the ER resulting in a block in ER to golgi trafficking (see, e.g., Hicke et al. (1989) EMBO J. 8(6):1677-1684 and Castillo-Flores et al. (2005) J. Biol. Chem. 280(40):34033-34041).
To identify compounds that rescue the sec23^ts mutant phenotype, the mutant strain was first grown at 25° C. in rich media overnight. The strain was then diluted to an OD600 of 0.004 in SC media with 2% glucose, and mixed with various dilutions of test compounds compounds compounds (0.05 to 50 μM) in SC media with 2% glucose. The cells were then incubated at 25° C. or 30° C. for 24 hours. Rescue of the sec23^ts mutant phenotype was scored as an increase in the OD600 of cells cultured in the presence of the a compound as compared to cells cultured in the absence of the test compound.

alpha-synuclein toxicity = experiment: alpha-synuclein screen (rescue of cells from alpha-synuclein toxicity); format: cell-based
[2] = system: sar1^ts mutant yeast strain; experiment: sar1^ts mutant growth rescue assay (OD600); format: cell-based; details: 35° C., 72 hours, 0.05 to 50 μM
Procedure: The sar1st mutant yeast strain (ATCC, Manassas, Va.) carries a temperature sensitive mutant allele of the SAR1 gene, which permits the strain to grow at 25° C., but undergo growth arrest at 35° C. or higher. Inactivation of the mutant Sar1^ts protein at 35° C. prevents the formation of transport vesicles at the ER, causing a block in ER to golgi trafficking (Saito et al. (1998) J. Biochem. (Tokyo) 124(4):816-823).
To identify compounds that rescue the sar1^ts mutant phenotype, the mutant strain was first grown at 25° C. in rich media overnight. The strain was then diluted to an OD600 of 0.004 in SC media with 2% glucose, and mixed with various dilutions of test compounds (0.05 to 50 μM) in SC media with 2% glucose. The cells were then incubated at 25° C. or 35° C. for 72 hours. Rescue of the sar1^ts mutant phenotype was scored as an increase in the OD600 (concentration of the yeast cells) cultured in the presence of a test compound as compared to cells cultured cultured in the absence of the test compound.

ΔF508 CFTR = ΔF508 CFTR stabilization in CFBE cells, western blot; format: cell-based; details: 16 hours, 37° C.
Procedure: Selected compounds identified in the ypt1^ts screen were further tested for their ability to stabilize ΔF508 CTFR. CFBE cells, a cell line generated by transformation of cystic fibrosis tracheo-bronchial cells (ΔF508 CTFR homozygous) with SV40 (Bruscia et al. (2002) Gene Ther. 9(11):683-685), were cultured with 10 μM Cpd. I.3, 10 μM Cpd. II.2, or 10 μM VRT-325 for 16 hours at 37° C. (VRT-325 is described in, e.g., Van Goor et al. (2006) Am. J. Physiol. Lung Cell Mol. Physiol. 290:L1117-L1130). A population of cells was also cultured with the dimethyl sulfoxide (DMSO) solvent as a control.
Following incubation, cells were lysed, solubilized in Laemmli buffer, and subjected to SDS-PAGE. CFTR protein was visualized by western blotting using an antibody specific for CFTR. Culturing CFBE cells with Cpd. I.3 or Cpd. II.2 increased the amount of cellular ΔF508 CFTR protein (see band “B,” FIG. 3A). Cpd. I.3 and Cpd. […] The effects of Cpd. I.3 or Cpd.
Next, to test the effect of different concentrations of Cpd. I.3 and Cpd. II.2 on ΔF508 CFTR, a dose response experiment was performed. CFBE cells were grown at 37° C. for 16 hours in the presence of 1, 2.5, 5, or 10 μM Cpd. I.3 or Cpd. II.2. Following incubation, lysates were prepared from the various treated cell populations, the lysates solubilized in Laemmli buffer, and subjected to SDS-PAGE. The relative amounts of glysosylated (band “C”) and unglycosylated (band “B”) ΔF508 CFTR protein were visualized by western blotting as above (FIGS. 4A and 4C). The band intensities were quantitated by scanning and densitometry. […] I.3 (FIG. 4B) and Cpd. II.2 (FIG. 4D), respectively.

ypt1^ts cells = experiment: ypt1^ts mutant growth rescue assay (OD600); format: cell-based, yeast
Source text: The yeast mutant cell line ypt1^ts suppresses, in a temperature dependent fashion, the dominant-lethal phenotype of a mutant YPT1 allele (Schmitt et al. (1988) Cell 53:635-47). The yeast mutant cell line ypt1^ts contains an allele of YPT1 that has two point mutations: one that changes an asparagine at position 121 to a isoleucine (N121I) and another that changes an alanine at position 161 to a valine (A161V). The N121I mutation causes dominant lethality by itself, but lethality is suppressed by the second mutation, resulting in a recessive loss of function phenotype at the restrictive temperatures. ypt1^ts cells grow normally at temperatures up to 25° C., but are growth arrested at 37° C. (Id.).
Compounds that rescue cells from alpha-synuclein toxicity were screened to assess their ability to restore growth of ypt1^ts cells. The effect of the compounds was measured on ypt1^ts cells cultured at room temperature (permissive temperature), 37° C. (non-permissive temperature), and 35° C. (semi-permissive temperature).
To determine if the test compounds could rescue the ypt1^ts mutant phenotype, ypt1^ts cells were grown overnight in synthetic complete (SC) media supplementd with 2% glucose at room temperature. Log phase cells were diluted into SC 2% glucose media to an OD600 of 0.003. 100 μL of this culture was then aliquoted into each well of 96-well flat bottom microtiter plates. 1 μL of the test compounds dissolved in DMSO (at a concentration range from 5 mM-0.005 mM) or of DMSO alone was added to each well (50 uM-0.05 uM final concentration in 1% DMSO). Plates were mixed by vortexing and incubated at 35° C. and 37° C. Compound rescue of the ypt1^ts temperature sensitive defect was assessed by measuring the OD600 (optical density at 600 nm; cell growth) of the cultures. Plates incubated at 35° C. were measured at 24 and 40 hours incubation time while plates grown at 37° C. were measured after 40 hours of incubation.
Assays monitoring the rescue of ypt1^ts mutants were performed using a vehicle, a positive control (calcium), active compounds obtained from the alpha-synuclein screen (Cpd. I.1 and Cpd. II.1), alpha-synuclein-active analogs of Cpd. […] I.1 (Cpd. I.4 and Cpd. I.5).

ΔF508 CFTR mutant = details: cell-based studies, cited from earlier work

Structure (SMILES) | rescue of the sec23^ts mutant phenotype [1] | activity in the alpha-synuclein screen (alpha-synuclein toxicity) | rescue of the sar1^ts mutant phenotype [2] | effects on stabilizing ΔF508 CFTR compared with VRT-325 (ΔF508 CFTR; 10 μM) | amount of cellular ΔF508 CFTR protein (band B) (ΔF508 CFTR; 10 μM, vs DMSO) | amount of the glycosylated form of ΔF508 CFTR (band C) (ΔF508 CFTR; 10 μM, vs DMSO) | concentration at which efficacy reached a maximum (dose response curves from western blot) (ΔF508 CFTR) [µM] | amount of glycosylated and unglycosylated ΔF508 CFTR proteins compared to absence of compound (ΔF508 CFTR; all concentrations tested (1-10 μM)) | rescue of the ypt1^ts mutant phenotype (ypt1^ts cells; 2.0 μM, 37° C., 40 hours) | rescue of ypt1^ts loss of function / restoring growth of ypt1^ts (ypt1^ts cells; 35° C. and 37° C.) | cellular chloride efflux (ΔF508 CFTR mutant; ΔF508 CFTR mutant) | stabilization of the ΔF508 CFTR mutant, preventing premature degradation (ΔF508 CFTR mutant)
N/C(=N\C(=O)C1CC1)Nc1nc2ccccc2s1 [Cpd. I.3] | rescue | active | rescue | comparable or better | increased | increased | 1 to 2.5 | increase | rescued | rescued |  | 
CC(C)C[C@H](NC(=O)[C@H](Cc1ccccc1)NC(=O)c1cnccn1)B(O)O [bortezomib] |  |  |  |  |  |  |  |  |  |  | restoring | stabilize
